Laboratory results reported in ChEMBL document CHEMBL4732213, “Discovery of novel ceramide analogs with favorable pharmacokinetic properties and combination with AKT inhibitor against colon cancer” (Eur J Med Chem, 2021).
pIC50: −log10 of the molar value. Activity calls are given as the source filed them. No cut-off for these calls is given here.

Legend:
[1] = Half life in BALB/c mouse at 10 mg/kg, iv; assay type: ADME, organism-based; conditions: in vivo
HT-29 [2] = assay: Induction of cell cycle arrest in human HT29 cells assessed as accumulation at G0/G1 phase at 20 uM after 24 hrs by PI staining based flow cytometry analysis; assay type: functional
HT-29 [3] = assay: Induction of cell cycle arrest in human HT29 cells assessed as accumulation at G0/G1 phase at 20 uM after 24 hrs in presence of 10 uM AKT inhibitor MK2206 by PI staining based flow cytometry analysis; assay type: functional
HT-29 [4] = assay: Induction of apoptosis in human HT29 cells assessed as increase in caspase-3 activity at 20 uM after 24 hrs in presence of 10 uM AKT inhibitor MK2206 by Western blot analysis; assay type: functional, cell-based
HT-29 [5] = assay: Induction of ROS generation in human HT29 cells at 20 uM after 16 hrs in presence of 10 uM AKT inhibitor MK2206 by flow cytometric analysis; assay type: functional, cell-based
HT-29 [6] = assay: Induction of apoptosis in human HT29 cells assessed as inhibition of AKT phosphorylation at 20 uM after 48 hrs by Western blotting analysis; assay type: functional, cell-based
HT-29 [7] = assay: Downregulation of c-Myc protein expression level in human HT29 cells at 20 uM incubated for 24 hrs by Western blotting analysis; assay type: functional, cell-based
HT-29 [8] = assay: Induction of apoptosis in human HT29 cells assessed as increase in PARP cleavage at 20 uM after 48 hrs in presence of 10 uM AKT inhibitor MK2206 by Western blot analysis; assay type: functional, cell-based
HT-29 [9] = assay: Antitumor activity against human HT-29 cells xenografted in BALB/c nude mouse assessed as reduction in tumor weight at 100 mg/kg/day, ip measured every 3 days in presence of 50 mg/kg AKT inhibitor MK2206 by electronic caliper method; assay type: functional, organism-based; conditions: time 3.0 day
HCT-116 = assay: Antiproliferative activity against human HCT116 cells measured after 72 hrs by sulforhodamine B assay; assay type: functional, cell-based; conditions: HCT-116, 72 h
T84 = assay: Additive antiproliferative activity against human T84 cells assessed as combination index at 5 uM after 72 hrs in presence of 2.5 uM AKT inhibitor MK2206 by Chou-Talalay method; assay type: functional
HT-29 [10] = assay: Induction of apoptosis in human HT29 cells assessed as increase in caspase-3 cleavage at 20 uM after 48 hrs in presence of 10 uM AKT inhibitor MK2206 by Western blot analysis; assay type: functional, cell-based
HT-29 [11] = assay: Synergistic antiproliferative activity against human HT29 cells assessed as combination index at 30 uM after 72 hrs in presence of 7.5 uM AKT inhibitor MK2206 by Chou-Talalay method; assay type: functional
COLO-678 [12] = assay: Antiproliferative activity against human COLO 678 cells measured after 72 hrs by sulforhodamine B assay; assay type: functional, cell-based; conditions: COLO-678, 72 h
HT-29 [13] = assay: Down regulation of p-RB expression in human HT29 cells at 20 uM incubated for 24 hrs in presence of 10 uM AKT inhibitor MK2206 by Western blotting analysis; assay type: functional, cell-based
COLO-678 [14] = assay: Synergistic antiproliferative activity against human COLO-678 cells assessed as combination index at 30 uM after 72 hrs in presence of 7.5 uM AKT inhibitor MK2206 by Chou-Talalay method; assay type: functional
HT-29 [15] = assay: Induction of apoptosis in human HT29 cells at 15 uM after 48 hrs in presence of 7.5 uM AKT inhibitor MK2206 by Annexin-V-FITC/PI staining based flow cytometric analysis; assay type: functional
[16] = Antiproliferative activity against human GM00637 cells measured after 72 hrs by sulforhodamine B assay; assay type: cell-based; conditions: GM00637, 72 h
[17] = Antiproliferative activity against human MINO cells measured after 72 hrs by CCK-8 assay; assay type: functional, cell-based
WI-38 = assay: Antiproliferative activity against human WI-38 cells measured after 72 hrs by sulforhodamine B assay; assay type: cell-based; conditions: WI-38, 72 h

With CCCCCCCOc1ccc(CCC(CO)(CO)NC(C)=O)c2ccccc12 the half-life [1] was 3.12 h, the Activity (HT-29 [2]) was “inactive” and the Activity (HT-29 [3]) was “Active”. For the same compound, the Activity (HT-29 [4]) was “Active”, the Activity (HT-29 [5]) was “Active” and the Activity (HT-29 [6]) was “Active”. For the same compound, the Activity (HT-29 [7]) was “inactive”, the Activity (HT-29 [8]) was “Active” and the Activity (HT-29 [9]) was “Active”. For the same compound, the pIC50 (HCT-116) was 4.59, the CI (T84) was 1.1 and the Activity (HT-29 [10]) was “Active”. For the same compound, the CI (HT-29 [11]) was 0.53, the pIC50 (COLO-678 [12]) was 4.68 and the Activity (HT-29 [13]) was “Active”. The CI (COLO-678 [14]) was 0.43, the Activity (HT-29 [15]) was 40% and the pIC50 [16] was 4.32. The pIC50 [17] was 4.88 and the pIC50 (WI-38) was 4.29.
